Laboratory results published in ChEMBL document CHEMBL3407344, “Computer-guided drug repurposing: identification of trypanocidal activity of clofazimine, benidipine and saquinavir” (Eur J Med Chem, 2015).
Calls of active or inactive are those of the source. No cut-off for these calls is given here.

How the values were obtained:
Trypanosoma cruzi [1] = assay: Trypanocidal activity against GFP expressing Trypanosoma cruzi Y C57BL/6J mouse acute model of trypanosomal infection assessed as reduction in parasitemia at 100 mg/kg/day, ip measured at 10,14 and 20 days post infection; type: functional, organism-based
Trypanosoma cruzi [2] = assay: Trypanocidal activity against GFP expressing Trypanosoma cruzi Y C57BL/6J mouse acute model of trypanosomal infection assessed as reduction in cardiac amastigote nests counts at 100 mg/kg/day, ip measured at 10,14 and 20 days post infection by HE staining based conventional microscopy; type: functional, organism-based
[3] = molecular target: Cruzipain (Trypanosoma cruzi) (UniProt P25779); assay: Inhibition of Trypanosoma cruzi cruzaine at 100 uM using mMBz-Pro-Phe-Arg-pNA substrate incubated for 5 mins by UV-vis spectrophotometry
[4] = Toxicity in orally dosed mouse; type: organism-based; details: in vivo, po
Trypanosoma cruzi [5] = assay: Trypanocidal activity against GFP expressing Trypanosoma cruzi Y epimastigotes assessed as effect on parasite morphology at 1 uM to 20 uM measured after 1 to 3 days by hemocytometry based cell counting method; type: functional, organism-based
H9c2 [6] = assay: Cytotoxicity against rat H9c2 cells assessed as effect on metabolic activity at 2.5 uM by alamar blue assay; type: ADME, cell-based; details: h9c2, 2.5 µM
Trypanosoma cruzi [7] = assay: Trypanocidal activity against GFP expressing Trypanosoma cruzi Y epimastigotes assessed as effect on parasite motility at 1 uM to 20 uM measured after 1 to 3 days by hemocytometry based cell counting method; type: functional, organism-based
Trypanosoma cruzi [8] = assay: Trypanocidal activity against GFP expressing Trypanosoma cruzi Y C57BL/6J mouse acute model of trypanosomal infection assessed as reduction in parasitemia at 10 mg/kg/day, ip measured at 10,14 and 20 days post infection; type: functional; details: route intraperitoneal
Trypanosoma cruzi [9] = assay: Trypanocidal activity against GFP expressing Trypanosoma cruzi Y epimastigotes assessed as inhibition of parasite proliferation at 1 uM to 20 uM and measured after 4 days by hemocytometry based cell counting method; type: functional; details: 96 h
Trypanosoma cruzi [10] = assay: (§1) Trypanocidal activity against GFP expressing Trypanosoma cruzi Y epimastigotes in rat H9C2 cell monolayers for 12 hrs infected with 30 mins compound pre-treated parasite obtained from infected African green monkey Vero cells assessed as reduction in cell invasion at 2.5 uM measured after 48 hrs by confocal microscopy; type: functional
Trypanosoma cruzi [11] = assay: as §1, with “parasite count” for “cell invasion”; type: functional, organism-based
Trypanosoma cruzi [12] = assay: as §1, with “24” for “12”, “parasite count” for “cell invasion”, “96” for “48”; type: functional, organism-based
[13] = molecular target: Cruzipain (Trypanosoma cruzi) (UniProt P25779); assay: Inhibition of Trypanosoma cruzi cruzaine using mMBz-Pro-Phe-Arg-pNA substrate incubated for 5 mins by UV-vis spectrophotometry
Plasma = assay: Plasma concentration in leprosy patient at […], po dosed daily; type: ADME, organism-based; parameters: route oral; details: human, in vivo
Trypanosoma cruzi [14] = assay: Trypanocidal activity against GFP expressing Trypanosoma cruzi Y epimastigotes assessed as inhibition of parasite proliferation at 20 uM measured after few hrs by hemocytometry based cell counting method; type: functional, organism-based
Trypanosoma cruzi [15] = assay: as §1, with “parasite count” for “cell invasion”, “5” for “2.5”; type: functional, organism-based
Trypanosoma cruzi [16] = assay: Trypanocidal activity against GFP expressing Trypanosoma cruzi Y C57BL/6J mouse acute model of trypanosomal infection assessed as reduction in cardiac amastigote nests counts at 20 mg/kg/day, ip measured at 10,14 and 20 days post infection by HE staining based conventional microscopy; type: functional, organism-based
Trypanosoma cruzi [17] = assay: as §1, with “24” for “12”, “parasite count” for “cell invasion”, “5” for “2.5”, “96” for “48”; type: functional, organism-based
H9c2 [18] = assay: Cytotoxicity against rat H9c2 cells assessed as effect on metabolic activity at 5 uM by alamar blue assay; type: ADME, cell-based; details: h9c2, 5 µM
Trypanosoma cruzi [19] = assay: Trypanocidal activity against GFP expressing Trypanosoma cruzi Y C57BL/6J mouse acute model of trypanosomal infection assessed as reduction in parasitemia at 20 mg/kg/day, ip measured at 10,14 and 20 days post infection; type: functional; details: route intraperitoneal
Trypanosoma cruzi [20] = assay: as §1, with “5” for “2.5”; type: functional
H9c2 [21] = assay: Cytotoxicity against rat H9c2 cells assessed as effect on metabolic activity at 10 uM by alamar blue assay; type: ADME, cell-based; details: h9c2, 10 µM
Trypanosoma cruzi [22] = assay: Trypanocidal activity against GFP expressing Trypanosoma cruzi Y epimastigotes assessed as inhibition of parasite proliferation at 1 uM to 20 uM and measured during stationary phase by hemocytometry based cell counting method; type: functional, organism-based
Trypanosoma cruzi [23] = assay: as §1, with “24” for “12”, “parasite count” for “cell invasion”, “10” for “2.5”, “96” for “48”; type: functional, organism-based
Trypanosoma cruzi [24] = assay: as §1, with “10” for “2.5”; type: functional
Trypanosoma cruzi [25] = assay: as §1, with “parasite count” for “cell invasion”, “10” for “2.5”; type: functional, organism-based

Cruzipain (Trypanosoma cruzi), sequence (P25779 123-467 limits assumed): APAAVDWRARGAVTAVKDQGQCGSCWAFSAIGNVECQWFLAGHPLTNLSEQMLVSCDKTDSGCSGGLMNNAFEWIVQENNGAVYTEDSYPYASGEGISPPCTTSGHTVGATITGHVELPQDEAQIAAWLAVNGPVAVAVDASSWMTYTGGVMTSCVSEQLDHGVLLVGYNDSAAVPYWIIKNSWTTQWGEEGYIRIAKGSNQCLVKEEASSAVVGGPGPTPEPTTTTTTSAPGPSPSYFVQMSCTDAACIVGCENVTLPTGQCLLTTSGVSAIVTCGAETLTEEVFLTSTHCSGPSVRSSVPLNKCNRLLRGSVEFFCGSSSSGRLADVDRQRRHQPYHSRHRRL

O=C(Cn1ccnc1[N+](=O)[O-])NCc1ccccc1
inhibition (Trypanosoma cruzi [1]): Active | inhibition (Trypanosoma cruzi [2]): Active

COc1ccc(CCN(C)CCCC(C#N)(c2ccc(OC)c(OC)c2)C(C)C)cc1OC (configuration not stated)
inhibition [3]: inactive

COC(=O)C1=C(C)NC(C)=C(C(=O)OC2CCCN(Cc3ccccc3)C2)C1c1cccc([N+](=O)[O-])c1 (configuration not stated) [BENIDIPINE]
LD50 [4]: > 300 mg/kg | Activity (Trypanosoma cruzi [5]): Active | inhibition [3]: Active | Activity (H9c2 [6]): Non-toxic | Activity (Trypanosoma cruzi [7]): Active | inhibition in vivo at 10 mg/kg/day (Trypanosoma cruzi [8]): 40% | LC50 (Trypanosoma cruzi [9]): 19.5 µM | fold change (FC) (Trypanosoma cruzi [10]): 3 | Activity (Trypanosoma cruzi [11]): Active | Activity (Trypanosoma cruzi [12]): Active | inhibition [13]: Dose-dependent effect

CC(C)/N=c1\cc2n(-c3ccc(Cl)cc3)c3ccccc3nc-2cc1Nc1ccc(Cl)cc1 [CLOFAZIMINE]
concentration (Plasma): 2100 nM | inhibition (Trypanosoma cruzi [14]): Active | Activity (Trypanosoma cruzi [15]): Active | LD50 [4]: 5000 mg/kg | Activity (Trypanosoma cruzi [5]): Active | inhibition [3]: Active | Activity (Trypanosoma cruzi [7]): Active | LC50 (Trypanosoma cruzi [9]): 10.6 µM | inhibition (Trypanosoma cruzi [16]): Active | Activity (Trypanosoma cruzi [17]): Active | Activity (H9c2 [18]): Non-toxic | inhibition [13]: Dose-dependent effect | inhibition in vivo at 20 mg/kg/day (Trypanosoma cruzi [19]): 40% | fold change (FC) (Trypanosoma cruzi [20]): 3

CC(C)(C)NC(=O)[C@@H]1C[C@@H]2CCCC[C@@H]2CN1C[C@@H](O)[C@H](Cc1ccccc1)NC(=O)[C@H](CC(N)=O)NC(=O)c1ccc2ccccc2n1 [SAQUINAVIR]
Activity (H9c2 [21]): Non-toxic | Activity (Trypanosoma cruzi [5]): Active | inhibition [3]: Active | Activity (Trypanosoma cruzi [7]): Active | inhibition (Trypanosoma cruzi [22]): Active | Activity (Trypanosoma cruzi [23]): Active | fold change (FC) (Trypanosoma cruzi [24]): 3 | inhibition [13]: Dose-dependent effect | Activity (Trypanosoma cruzi [25]): Active
